Our source for the TGI and GI50 values is PubChem BioAssay (NCI).

What all share (assay): growth of human tumour cells (NCI), 48 h
Test [1] has as its system A549 NSCLC.
In test [2] the test system is OVCAR-5 ovarian.
Test [3] has as its system SNB-75 CNS.
Test [4] concerns OVCAR-8 ovarian.
In test [5] the test system is EKVX NSCLC.
The test system of test [6] is K-562 leukemia.
Test [7] has as its system SR leukemia.
Test [8] has as its system OVCAR-3 ovarian.
Test [9] concerns HCT-15 colon.
Test [10] has as its system SF-539 CNS.

Each structure is given as a SMILES string.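 In this assay, cells in 96-well plates receive the compound at five concentrations for 48 hours. Endpoints are linearly interpolated between the surrounding concentrations. GI50 marks 50% less growth. TGI is the concentration that stops growth completely.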 Some results are limits rather than exact numbers.

As for `COc1c2c(c3c(c1CCC(=O)O)OC(C)(C)C=C3)OC(C)(C)C=C2`, the TGI in test [1], in test [2], in test [3], in test [4], in test [5] and in test [6] was more than 100 µM each time. The TGI in [7], in test [8] and in [9] was more than 100 µM each time.

With `CCNC(=O)Nc1ccccn1`, the TGI in [1], in test [2], in test [3], in [4], in test [5] and in test [6] was more than 100 µM throughout. For the same compound, the TGI in test [7], in [8] and in test [10] was more than 100 µM each time.

Regarding `Nc1c(C(=O)Nc2cccc([N+](=O)[O-])c2)sc2nc3c(cc12)C(O)CCC3` (stereo not given), the GI50 was 5.82 µM in test [1]; more than 100 µM in test [2]; 5.38 µM in test [3]; 10.8 µM in [4]; 0.852 µM in [6]; 1.96 µM in [7]. Besides, the GI50 was 4.53 µM in test [8], 5.06 µM in [10] and 2.82 µM in test [9]. Further, the TGI in test [1] is more than 100 µM; in test [2], more than 100 µM; in [3], 30.5 µM; in test [4], more than 100 µM; in test [6], more than 100 µM; in test [7] it was more than 100 µM. For the same compound, the TGI in test [8] is more than 100 µM; in test [10], more than 93.7 µM; in test [9] it was more than 100 µM.

Regarding `C=CCC1([C@H](C)[C@@H](OC(C)=O)c2cc(OC)c(OC)c(OC)c2)C[C@@H](OC)CCC1=O` (stereo not given in full), the TGI in test [1] is 77.5 µM; in test [3], 36 µM; in test [4] it was 54.2 µM; in test [5], 76.2 µM; in test [6] it was more than 100 µM; in test [7], 91.7 µM. Also, the figures for the TGI in [8], in [10] and in [9] were 50.5 µM, 30.8 µM and 40.8 µM, respectively.

On to `OC[C@@H](O)[C@H]1NC[C@@H](O)[C@H]1O`, for which the TGI in [1], in [2], in test [3], in test [4], in test [5] and in test [7] was more than 100 µM each time. Moreover, the TGI in test [8], in [10] and in test [9] was more than 100 µM throughout.

In the case of `Cc1ccc(/C=C2\CN(C(=O)OC(C)(C)C)C/C(=C\c3ccc(C)cc3)C2=O)cc1`, the TGI in test [1], in [2], in [3], in test [4], in test [5] and in test [6] was more than 100 µM in each case. Moreover, the TGI in [7] and in [9] was more than 100 µM each time. The GI50 in test [2] is 0.391 µM; in test [3] it was 0.693 µM; in [4], 0.918 µM; in test [6], 0.332 µM; in test [7], 0.0346 µM; in test [8], 0.352 µM. In addition, the GI50 in [9] was 0.054 µM.

With `O=c1c2c([nH]c3cc4c(cc13)OCO4)-c1ccccc1CC2`, the TGI in [1], in test [3], in test [4], in test [5], in test [6] and in [7] was more than 100 µM each time. Also, the TGI in [8], in test [10] and in test [9] was more than 100 µM throughout.

Turning to `O=C1OC(=O)C(c2c[nH]c3ccccc23)=C1c1c[nH]c2ccccc12`, the GI50 in test [1], in test [2], in test [3], in [4], in test [6] and in [7] was more than 25 µM throughout. Also, the GI50 in test [8], in [10] and in test [9] was more than 25 µM each time. The TGI in test [1], in test [2], in [3], in test [4], in test [6] and in test [7] was more than 25 µM in each case. The TGI in [8], in test [10] and in test [9] was more than 25 µM throughout.

As to `COC(=O)c1csnn1`, the TGI in test [1], in [4], in [5], in [6], in [7] and in test [8] was more than 100 µM throughout. In addition, the TGI in [10] and in test [9] was more than 100 µM each time.

In the case of `Cc1ccc2c(ccc3c[n+]4c5ccccc5ccc4n32)c1`, the GI50 in test [1] was 0.663 µM; in test [2] it was 4.42 µM; in test [3], 1.18 µM; in test [4], 0.688 µM; in test [5] it was 0.484 µM; in test [6], 0.584 µM. In addition, the GI50 was 1.47 µM in test [7], 0.459 µM in [8] and 7.33 µM in test [9]. Further, the TGI in test [1] amounted to 13.7 µM; in test [2], 45.1 µM; in [3], 8.05 µM; in [4], 9.72 µM; in [5], 25.4 µM; in [6] it was 14.4 µM. Besides, the values for the TGI in test [7], in test [8] and in [9] were 16.7 µM, 2.63 µM and more than 100 µM, respectively.

As to `Cc1c(C(=O)/C=C/c2csc3ccccc23)[n+](=O)c2ccccc2n1[O-]`, the GI50 in test [1] is 2.13 µM; in test [2], 1.47 µM; in [3], 1.38 µM; in test [4], 2.37 µM; in test [5] it was 1.32 µM; in test [7], 1.79 µM. The GI50 in test [8] is 1.32 µM; in test [10], 1.59 µM; in test [9], 1.83 µM. Also, the TGI in test [1] was found to be 5.25 µM; in test [2], 2.94 µM; in test [3], 3.34 µM; in [4], 6.31 µM; in test [5] it was 3.64 µM; in test [7] it was 8.69 µM. Also, the figures for the TGI in test [8], in test [10] and in test [9] were 2.62 µM, 3.12 µM and 4.4 µM, respectively.
